According to patent publication US20160000762A1, “IMPROVING COGNITIVE FUNCTION” (THE REGENTS OF THE UNIVERSITY OF CALIFORNIA, priority 2013, published 2016):

Legend:
Aβ = Aβ ELISA, brain of injected wild-type mice; format: in vivo; settings: 15 or 30 mg/kg i.p. daily for 2 weeks (both doses)
Protocol: Aβ ELISA. Mouse brains were homogenized in tissue homogenization buffer containing 250 mM sucrose, 20 mM Tris base, protease, and phosphatase inhibitors. To measure soluble Aβ, DEA extraction was performed. Crude 10% homogenate was mixed with an equal volume of 0.4% diethylamine (DEA), sonicated, and ultracentrifuged for 1 hr at 100,000×g. The supernatant was collected and neutralized with 10% 0.5 M Tris, pH 6.8. Sensitive and specific ELISAs to rodent Aβ1-40 was purchased from IBL Transatlantic (Toronto, Canada) and conducted per the manufacturer's protocol.
To test whether BTA-EG4 alters Aβ production in vitro, primary cortical neurons were treated with BTA-EG4 (1 or 5 μM) or control (10% DMSO), and Aβ levels were measured using ELISA. […] We then examined whether BTA-EG4 can alter Aβ levels in vivo by injecting wild-type mice daily for 2 weeks with BTA-EG4 (15 or 30 mg/kg, 10% DMSO in saline, i.p.). […] Furthermore, BTA-EG4 altered APP processing in vivo, as monitored by increased sAPPα (α-secretase cleavage product) and decreased sAPPβ (β-secretase cleavage product) levels in BTA-EG4 injected wild-type mice (30 mg/kg, i.p) compared to control-injected mice (FIGS. 1E, 1F).

dendritic spines = test: Golgi staining, dendritic spines of APP knockout mice; format: in vivo; settings: hippocampal CA1 neurons; 30 mg/kg, 2 weeks
Text: Animals. Wild-type C57BL/6J and APP knockout mice (B6.12957-APPtm1Dbo/J) were obtained from Jackson Laboratories (Bar Harbor, Me., USA). CD1 mice were obtained from Vivasource. All animal experiments were approved by the Institutional Animal Care and Use Committees at Georgetown University and Johns Hopkins University. All animals were maintained according to protocols approved by the Animal Welfare and Use Committee at both institutes.
Golgi staining and morphological analysis of dendritic spines. To analyze dendritic spine density and morphology in brain, FD RAPID GOLGISTAIN KIT™ (FD NeuroTechnologies, Ellicott City, Md., USA) was used. Dissected mouse brains were immersed in Solution A and B for 2 weeks in dark conditions at room temperature and transferred into Solution C for 24 h at 4° C. Brains were sliced using a VT1000S Vibratome (Leica, Bannockburn, Ill., USA) at 150 μm thickness. Dendritic images were acquired by Axioplan 2 (Zeiss, Oberkochen, Germany) under brightfield microscopy. Spine width, length, and linear density of cortical layers II/III and CA1 of hippocampus were measured using Scion image software (Scion Corporation, Frederick, Md., USA). Images were coded, and dendritic spines counted in a blinded manner. Spines from 0.2 to 2 μm in length were included for analysis. All morphological analysis was done blind to experimental conditions. […]

Substance: BTA-EG4
- Aβ peptide levels in brain (Aβ): significantly decreased
- dendritic spine density (dendritic spines): did not find a statistically significant increase
